From PMC8234620, “An Integrated Peptidomics and In Silico Approach to Identify Novel Anti-Diabetic Peptides in Parmigiano-Reggiano Cheese” (Biology, 2021)

How the values were obtained:
[1] = target: T1, porcine pancreatic α-amylase (Sus scrofa, UniProt P00690); assay: α-Amylase assay; format: biochemical; settings: synthetic peptides; n.a. = not active
T1 sequence (P00690 16-511): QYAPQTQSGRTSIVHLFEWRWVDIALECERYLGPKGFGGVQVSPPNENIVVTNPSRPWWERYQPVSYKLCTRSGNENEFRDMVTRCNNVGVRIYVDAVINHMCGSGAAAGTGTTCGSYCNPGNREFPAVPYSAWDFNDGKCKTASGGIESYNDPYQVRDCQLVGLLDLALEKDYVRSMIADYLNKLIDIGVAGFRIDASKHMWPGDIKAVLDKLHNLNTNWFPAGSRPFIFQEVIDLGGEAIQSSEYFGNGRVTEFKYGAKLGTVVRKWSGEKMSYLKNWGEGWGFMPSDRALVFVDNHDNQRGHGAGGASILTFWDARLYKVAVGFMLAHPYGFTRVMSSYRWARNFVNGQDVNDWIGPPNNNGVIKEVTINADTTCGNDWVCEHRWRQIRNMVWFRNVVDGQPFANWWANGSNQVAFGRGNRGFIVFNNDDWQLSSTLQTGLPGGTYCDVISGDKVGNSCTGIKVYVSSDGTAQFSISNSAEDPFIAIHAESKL
Protocol: α-Amylase assay was performed in accordance with McDougall et al. adapted to a microplate reader. For the reaction, 5 μL of 2 U/mL of porcine pancreatic α-amylase (dissolved in sodium phosphate buffer 20 mmol/L pH 6.9 containing 6.7 mmol/L NaCl) were mixed with 45 μL of sodium phosphate buffer or different concentrations of water-soluble low-molecular weight peptide extracts. The mixture was incubated at 37 °C for 20 min before adding 50 μL of 1% starch solution. The reaction was carried out at 37 °C for 10 min and stopped by the addition of dinitrosalicylic acid solution, followed by 15 min boiling in a water bath. After the addition of 450 μL of water, 200 μL of solution was transferred in a 96-well plate and the absorbance was read at 540 nm. Results were expressed as IC50, namely the peptides concentration (expressed in mg/mL) able to inhibit the enzymatic activity by 50%. The IC50 values were calculated by plotting the peptide concentration (base-10 logarithm) as a function of the percentage of enzyme inhibition.
(§1) Selected peptides were then synthesized (Bio-Fab Research, Rome, Italy) and tested for their inhibitory activity against DPP-IV, α-glucosidase, and α-amylase. The assays were carried out as reported in Section 2.3. The results were expressed as IC50 values.

[2] = target: T2, rat intestinal DPP-IV (Rattus norvegicus, UniProt P14740); assay: Dipeptidyl peptidase IV (DPP-IV) assay; format: biochemical; settings: synthetic peptides
T2 construct: 10 μL of rat intestinal DPP-IV (0.1 U/mL in the assay); from tissue; host or cells: rat intestine
Protocol: DPP-IV assay was performed as described in Tagliazucchi et al.. Briefly, in a 96-well plate, 10 μL of rat intestinal DPP-IV (0.1 U/mL in the assay) were mixed with 145 μL of Tris-HCl buffer (pH 7.0; 0.1 mol/L) and 40 μL of different concentrations of water-soluble low-molecular weight peptide extracts. After 20 min of incubation at 37 °C, the reaction was started by the addition of 5 μL of glycine-proline-p-nitroanilide (6.4 mmol/L). The amount of released p-nitroanilide was determined after 20 min of incubation at 37 °C by reading at 405 nm in a microplate reader. Results were expressed as IC50 as reported above.
as §1

[3] = target: yeast α-glucosidase (Saccharomyces cerevisiae, UniProt P53341); assay: α-Glucosidase assay; format: biochemical; settings: synthetic peptides; n.a. = not active
Protocol: α-Glucosidase assay was performed as reported in Bellesia et al., adapted to a microplate reader. The reaction was performed by mixing 66.7 μL of potassium phosphate buffer (67 mmol/L, pH 6.8), 3.3 μL of glutathione 3 mmol/L, 20 μL of different concentrations of water-soluble low-molecular weight peptide extracts, and 5 μL of yeast α-glucosidase 0.2 U/mL. After 20 min of incubation at 37 °C, the reaction was started by the addition of 5 μL of p-nitrophenyl-glucose 5 mmol/L. After a further 20 min of incubation at 37 °C, the reaction was stopped by the addition of 150 μL of Na2CO3 100 mmol/L. The amount of released p-nitrophenol was determined by reading at 405 nm with a microplate reader. Results were expressed as IC50 as reported above.
as §1

[4] = parameters: method as in BIOPEP database and Milk Bioactive Peptides Database; settings: ref BIOPEP database and Milk Bioactive Peptides Database; cited from earlier work
[5] = system: Staphylococcus aureus, Streptococcus pyogenes, and Listeria monocytogenes; parameters: method as in PMID 8603791; settings: mice; ref [50]; cited from earlier work
[6] = parameters: method as in BIOPEP database and Milk Bioactive Peptides Database; settings: ref BIOPEP database and Milk Bioactive Peptides Database; cited from earlier work; remark: listed apart in the source
[7] = parameters: method as in BIOPEP database and Milk Bioactive Peptides Database; settings: ref BIOPEP database and Milk Bioactive Peptides Database; cited from earlier work; remark: listed apart in the source
[8] = parameters: method as in BIOPEP database and Milk Bioactive Peptides Database; settings: ref BIOPEP database and Milk Bioactive Peptides Database; cited from earlier work; remark: listed apart in the source
[9] = system: angiotensin converting enzyme; settings: cited from earlier work
[10] = parameters: method as in PMID 27572703, PMID 33337010; settings: mild hypertensive subjects; ref [47],[58]; cited from earlier work

T2 sequence (P14740 whole entry): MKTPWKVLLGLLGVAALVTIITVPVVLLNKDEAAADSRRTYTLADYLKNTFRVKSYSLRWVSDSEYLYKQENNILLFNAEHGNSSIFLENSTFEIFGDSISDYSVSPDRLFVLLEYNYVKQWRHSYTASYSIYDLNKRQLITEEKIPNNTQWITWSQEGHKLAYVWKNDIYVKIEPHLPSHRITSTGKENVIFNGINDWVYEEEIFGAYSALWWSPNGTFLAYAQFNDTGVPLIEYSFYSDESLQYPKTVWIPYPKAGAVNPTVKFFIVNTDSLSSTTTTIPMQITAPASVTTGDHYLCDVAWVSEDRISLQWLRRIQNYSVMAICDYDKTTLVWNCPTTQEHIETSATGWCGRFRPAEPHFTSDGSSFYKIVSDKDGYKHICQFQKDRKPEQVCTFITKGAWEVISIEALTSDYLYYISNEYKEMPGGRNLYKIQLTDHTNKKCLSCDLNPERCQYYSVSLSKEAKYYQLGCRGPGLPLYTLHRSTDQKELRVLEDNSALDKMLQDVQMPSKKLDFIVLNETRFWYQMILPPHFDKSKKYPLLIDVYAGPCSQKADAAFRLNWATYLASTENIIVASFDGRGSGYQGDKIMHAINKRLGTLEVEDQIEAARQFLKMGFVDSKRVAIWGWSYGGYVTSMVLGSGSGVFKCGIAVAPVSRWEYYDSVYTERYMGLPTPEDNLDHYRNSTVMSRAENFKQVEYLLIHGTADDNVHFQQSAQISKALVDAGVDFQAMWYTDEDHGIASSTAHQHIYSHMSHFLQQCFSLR
Chain of yeast α-glucosidase (P53341 whole entry): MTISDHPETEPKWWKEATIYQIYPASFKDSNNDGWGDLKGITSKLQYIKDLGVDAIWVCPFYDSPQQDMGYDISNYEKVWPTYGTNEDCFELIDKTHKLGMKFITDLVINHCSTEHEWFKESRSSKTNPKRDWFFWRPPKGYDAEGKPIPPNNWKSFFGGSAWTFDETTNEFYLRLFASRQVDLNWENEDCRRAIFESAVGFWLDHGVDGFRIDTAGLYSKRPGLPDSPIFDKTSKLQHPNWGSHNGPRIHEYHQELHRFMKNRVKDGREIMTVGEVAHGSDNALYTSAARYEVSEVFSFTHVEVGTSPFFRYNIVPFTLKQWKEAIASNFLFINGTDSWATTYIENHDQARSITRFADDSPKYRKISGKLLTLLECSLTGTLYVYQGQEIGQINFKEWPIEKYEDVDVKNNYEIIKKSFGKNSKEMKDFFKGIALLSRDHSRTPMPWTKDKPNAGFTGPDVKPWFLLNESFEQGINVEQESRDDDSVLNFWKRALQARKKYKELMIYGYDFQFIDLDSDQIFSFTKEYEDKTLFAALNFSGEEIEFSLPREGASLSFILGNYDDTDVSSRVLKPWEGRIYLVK

CC[C@H](C)[C@H](N)C(=O)N1CCC[C@H]1C(=O)N1CCC[C@H]1C(=O)O [IPP]
IC50 [1]: 763 ± 18.9 µM
IC50 [2]: 169 ± 2.2 µM
IC50 [3]: 765 ± 15 µM

RPKHPIKHQGLPQEVLNENLLRF [αS1-casein f(1–23), anti-microbial peptide isracidin]
Bioactivity: Immunomodulation [4]: Immunomodulation
in vivo anti-microbial effect [5]: protecting mice
Bioactivity: Anti-microbial [6]: Anti-microbial

VPP
Bioactivity: Antioxidant [7]: Antioxidant
Bioactivity: Anti-inflammatory [8]: Anti-inflammatory
Bioactivity: ACE-inhibition ([9]; ref BIOPEP database and Milk Bioactive Peptides Database): ACE-inhibition
IC50 values against ACE ([9]; ref [47],[48],[49]): very low
in vivo anti-hypertensive effect [10]: anti-hypertensive effect
